According to patent US10156566B2, “Detoxification of microbial virulence factors in oral cavity” (priority 2015, dated 2018):
Several values for one entry are separate records, joined by “and”; a condition that tells them apart may be missing. Equal values may be shown once. Where a name gives a salt, the structure may show the parent alone.

test system: Lipopolysaccharide

In order of rising inhibition:
1. O=S(=O)(O)c1ccc(O)cc1 [Aluminum phenol sulfonate]  27.4%
2. CCCCC/C=C\C/C=C\C/C=C\C/C=C\CCCC(=O)NCCO [Anandamide (N-arachidonylethanol amide)]  31.3%
3. CCCCCCCCCCCCCCCC(=O)NCCO [Hexadecanamide MEA]  32.5%
4. CCCCCCCC/C=C\CCCCCCCC(=O)NCCO [Oleoylethanolamide]  34.1%
5. CC/C=C\C/C=C\C/C=C\CCCCCCCC(=O)OCC [(z,z,z)-9,12,15-octadecatrienoic acid ethyl ester]  34.9%
6. CCCCC/C=C\C/C=C\C/C=C\C/C=C\CCCCOC(CO)CO [2-Arachidonyl Glycerol ether]  35%
7. CCCCCCCC/C=C\CCCCCCCC(=O)OC[C@H](CO)OC(C)=O [1-Oleoyl-2-acetyl-sn-glycerol]  36.2%
8. CCCCCCCCCCCCCCCCOCC(CO)OC (stereo not drawn) [Hexadecyl Methyl Glycerol]  40%
9. CCCCC/C=C\C/C=C\C/C=C\C/C=C\CCCC(=O)OCC(O)CO (stereo not drawn) [1-Arachidonoyl Glycerol]  41.8%
10. CCCCCCCCCCCCCCCCOC[C@H](CO)OC(C)=O [Hexadecyl Acetyl Glycerol]  42%
11. CCCCCCCCCCCCC/C=C/[C@@H](O)[C@H](COP(=O)(O)O)NC(=O)CCCCCCC [C-8 Ceramide-1-phosphate]  42.7%
12. CCCCCCCCCCCC(=O)NCCO [Dodecanamide MEA]  44.3%
13. CCCCCCCC/C=C\CCCCCCCC(=O)OCCO [9-octadecenoic acid (z)-,2-hydroxyethyl ester]  46%
14. CC(C)c1ccc2c(c1)c(SC(C)(C)C)c(CC(C)(C)C(=O)O)n2Cc1ccc(Cl)cc1 [MK 886 (sodium salt)]  47.2%
15. CCCCCCCCCC(=O)OC[C@H](CO)OC(=O)CCCCCCCCC [1,2-Didecanoyl-sn-glycerol]  47.4%
16. CCCCC/C=C\C/C=C\C/C=C\C/C=C\CCCC(=O)Nc1ccc(O)cc1 [AM404]  47.6%
17. CCCCCCCCCCCCC/C=C/[C@@H](O)[C@H](CO)NC(=O)CCCCC [C-6 Ceramide]  48%
18. CCCCCCCCCCCCCCCC(=O)OC[C@H](COP(=O)([O-])OCC[N+](C)(C)C)OC(=O)CCCC=O [POV-PC]  48.7%
19. CCCCC/C=C\C/C=C\C/C=C\C/C=C\CCCC(=O)NCCc1ccc(O)c(O)c1 [N-Arachidonoyl Dopamine]  49.1%
20. CCCCCCCC(=O)OC[C@H](CO)OC(=O)CCCCCCC [1,2-Dioctanoyl-sn-glycerol]  51.2%
21. CCCCC/C=C\C/C=C\C/C=C\C/C=C\CCCC(=O)O[C@H](COC(=O)CCCCCCCCCCCCCCCCC)COP(=O)([O-])OCC[N+](C)(C)C [1-Stearoyl-2-Arachidonoyl PC]  55%
22. COc1cc(/C=C/C(=O)CC(=O)/C=C/c2ccc(O)c(OC)c2)ccc1O [Curcumin]  55.9%
23. CCCCCCCCCCCCCCCCOC[C@H](COP(=O)([O-])OCC[N+](C)(C)C)OC(=O)NC [Methylcarbamyl PAF C-16]  59.7%
24. CCCCCCCCCCCCC/C=C/[C@@H](O)[C@@H](N)CO [D-erythro-Sphingosine C-18]  63.8%
25. CCCCCCCCCCCCC/C=C/[C@@H](O)[C@H](CO)NC(=O)CCCCCCC [C-8 Ceramide]  65.5%
26. CCCCCCCCCC(=O)OC[C@H](COP(=O)([O-])OCC[N+](C)(C)C)OC(=O)CCCCCCCCC [1,2-Didecanoyl PC]  67.9%
27. CCCCCCCCCCCCCCCCCC[N+](C)(C)C [Steartrimonium chloride]  71.3%
28. CCCCCCCCCCCCCCCC(=O)OC[C@H](COP(=O)([O-])OCC[N+](C)(C)C)OC(=O)CCCCCCCC(=O)O [PAz-PC]  72.8%
29. CCCCCCCCc1ccc(CCC(N)(CO)CO)cc1 [FTY720, reference compound]  79.1%
30. CCCCCCCC/C=C\CCCCCCCCCCCCCC(=O)NCCS(=O)(=O)O [N-Nervonoyl Taurine]  79.8%
31. CC(C)CCC[C@@H](C)[C@H]1CC[C@H]2[C@@H]3CC(=O)[C@@]4(O)C[C@@H](O)CC[C@]4(C)[C@H]3CC[C@]12C [5α-hydroxy-6-keto Cholesterol]  81.7%
32. CC/C=C\C/C=C\C/C=C\C/C=C\C/C=C\CCCC(=O)O[C@H](COCCCCCCCCCCCCCCCC)COP(=O)([O-])OCC[N+](C)(C)C [Eicosapentaenoyl PAF C-16]  82.7%
33. CCCCCCCCCCCCCCCCCCCCCC(=O)NCCS(=O)(=O)O [N-Docosanoyl Taurine]  85.2%
34. CCCCCCCCCCCCCCCC(=O)NCC(=O)O [N-Palmitoyl Glycine]  85.8%
35. CCCCCCCCCCCCCCCOS(=O)(=O)O [Sodium pentadecyl sulfate]  86.6%
36. CCCCCCCCCCCCCCCCCCN(CCO)CCO [STEARYLDIETHANOLAMINE]  88.1%
37. CCCCCCCCCCCCCCCCOS(=O)(=O)O [Sodium hexadecyl sulfate]  89.4%
38. CCCCCCCCCCCC[P+](c1ccccc1)(c1ccccc1)c1ccccc1 [DODECYLTRIPHENYLP[…], 98%, DODECYLTRIPHENYLP[…]]  91.1%
39. Cc1cc(C(C)(C)CC(C)(C)C)ccc1OCCOCC[N+](C)(C)Cc1ccccc1 [Methylbenzethonium chloride, reference compound]  93%
40. CCCCCCCC[N+](C)(C)CCCCCCCC [Dioctyldimethylammonium chloride]  93.3%
41. O=C1O/C(=C/Br)CC[C@H]1c1cccc2ccccc12 [(S)-Bromoenol lactone]  95.2%
42. CCCCCCCCCCCCCCCC[N+](C)(C)Cc1ccccc1 [Dimethylbenzylcetylammonium chloride]  95.5%
43. CCCCCCCCCCCC[N+](C)(C)CCOc1ccccc1 [Domiphen bromide, reference compound]  95.5%
44. CCCCCCCCCCCCCS(=O)(=O)O [TRIDECYL SULFONIC ACID SODIUM SALT]  95.6%
45. CCCCCCCCCCCCCCCCCC[N+](C)(C)Cc1ccccc1 [Stearalkonium chloride]  96.5%
46. CCCCCCCCCCCCC/C=C/[C@@H](O)[C@H](CO)NCCCCCCCC [C-8 Ceramine]  96.7%
47. O=C1O/C(=C/Br)CC[C@@H]1c1cccc2ccccc12 [(R)-Bromoenol lactone]  97.3%
48. CCCCCCCCCC[N+](C)(C)CCCCCCCCCC [Didecyldimethylammounium chloride]  97.5%
49. CCCCCCCCCCCC[N+](C)(C)Cc1ccccc1 [Dimethyldodecylbenzylammonium bromide]  98.1%
50. CCCCCCCCCCCC[N+](C)(C)Cc1ccccc1 [Dimethyldodecylbenzylammonium chloride]  98.2%
51. CCCCCCCCCCCC(=O)NCCCN(C)C [(Laurylamidopropyl)dimethyl amine]  99.1%
52. CCCCCCCCCCCC(=O)NCCCN(C)C [Dimethylaminopropyllaurylamide]  99.4%
53. CCCCCCCCCCCCCCCC[N+](C)(C)C [Cetrimonium chloride]  99.5%
54. CCCCCCCCCCCCCCCC[N+](C)(C)C [Cetyltrimethylammonium bromide]  99.5%
55. CCCCCCCC/C=C\CCCCCCCCN [Oleyl amine]  99.6%
56. O=C1O/C(=C/Br)CCC1c1cccc2ccccc12 (stereo not drawn) [Bromoenol lactone]  99.7%

In the case of `CCCCCCCCCCCCN(CCO)CCO` [N-Lauryldiethanolamine], the inhibition is reported as 99.6% and 100%.
